# Measured values: patent US12630532B2, “Indole-substituted quinolines and their combination with Plk1 inhibitors for the treatment of cancer” (UNIVERSITY OF KENTUCKY RESEARCH FOUNDATION, priority 2021, dated 2026)
# Tests used:
# Assay type in all cases: cell-based
# [1] = tested on: liver cancer cell line HepG2; assay: Cell proliferation inhibition assay; details: HepG2, 5 days (FIG. 1B)
# Procedure: (§1) Cell proliferation inhibition assays were done following a previous report (32). Cancer cells were seeded into 24-well plates at a density of 20,000 cells per well in 1 mL of culture medium and were cultured overnight at 37° C. Compounds and the vehicle control (DMSO) were added to the cells. After 5 days, the medium was removed, and 100 μL of trypsin was added. The cells were resuspended in phosphate-buffered saline (PBS) and were counted by Vi-CELL XR 2.03 (Beckman Coulter, Inc. USA). The ratio R of the number of viable cells in the compound treatment group to the number of viable cells in DMSO treatment group was taken as relative growth, and the percentage growth inhibition was calculated as (1−R)*100.
# [2] = tested on: sarcoma cell line SK-LMS-1; assay: Cell proliferation inhibition assay; details: SK-LMS-1, 5 days (FIG. 1B)
# Procedure: as §1
# [3] = tested on: prostate cancer cell line PC-3; assay: Cell proliferation inhibition assay; details: PC-3, 5 days (FIG. 1B)
# Procedure: as §1
# [4] = tested on: TOPFlash Wnt reporter; assay: TOPFlash Wnt reporter assay in stable HEK293T cells; details: 24 hours treatment
# Procedure: Wnt reporter assay was described previously (25). We subcloned Super 8×TOPFlash (provided by Professor Randall Moon, University of Washington) into the pGL4.83 [hRlucP/Puro] Vector and transfected it into HEK293T cells. A stable HEK293T cell line containing the TOPFlash reporter was established using puromycin selection (25). To assess if compounds of interest blocked the downstream signaling transduction pathway of β-catenin, the stable reporter cells were seeded to a 12-well plate and treated with 25 mM LiCl to stabilize β-catenin for 16 hours to activate Wnt signaling and then candidate compounds at predetermined concentrations for another 24 hours. The cells were lysed and centrifuged to obtain supernatants which were analyzed by FB 12 Single Tube Luminometer by Titertek-Berthold (Berthold Detection Systems GmbH, Elsässerstr, Germany).
# [5] = tested on: mouse colon cancer organoids; assay: Colon cancer organoids from Apc^f/+/Kras^LSL-G12D/Villin-Cre mouse model
# Procedure: The colon cancer organoids were isolated from Apc^f/+/Kras^LSL-G12D/Villin-Cre mouse model (38). Using 48-well drug screening to assess how compounds affected organoid colony formation, the Matrigel containing organoids was digested by 300 μL dispase. The gel was removed by 1,000×5 min spinning. The organoids were digested into single cells by 1 mL Trypsin and washed with 10 mL of ADF12. For each well, 80 μL of Matrigel was added to the bottom and 1000 cells in 60 μL Matrigel were added to the top. The cells were cultured in 250 μL of 3D complete medium (Advanced DMEM/F12 supplemented with 1×N-2, 1×B-27, 1 mM N-acetylcysteine and 1% penicillin/streptomycin). The cells were treated with DMSO or testing compounds and total number of organoids with diameter greater than 50 μm were analyzed and manually counted using microscope.
# After 3 days when organoids formed, fresh culture media were supplied, and compounds were added for additional 3 days. Organoid viability was measured using CellTiter-Glo® 3D Cell Viability Assay (Promega) following manufacturer's protocol.
smiles,measurement,setting,value
"CN(C)c1ccc2cc(-c3cn(C)c4ccccc34)c(N)nc2c1 [ISQ-1, N^7,N^7-Dimethyl-3-(1-methyl-1H-indol-3-yl)quinoline-2,7-diamine]",inhibited in vitro cell growth,[1],nanomolar concentrations
same,inhibited in vitro cell growth,[2],nanomolar concentrations
same,inhibited in vitro cell growth,[3],nanomolar concentrations
same,TOPFlash Wnt reporter luciferase luminescence,[4],inhibited TOPFlash Wnt reporter
same,organoid growth (CellTiter-Glo 3D viability),[5]; 3-day treatment after organoids formed,inhibited organoid growth in a dose-dependent manner
same,tumor organoid formation from single cells,[5]; day 7,inhibited tumor organoid formation from single cells
